These results are taken from PMC9157009, “Protein proximity networks and functional evaluation of the casein kinase 1 gamma family reveal unique roles for CK1γ3 in WNT signaling” (The Journal of Biological Chemistry, 2022).

Structures are written as SMILES. Where “and” joins values, the source holds several entries; their conditions need not be identical. Equal entries are not always repeated.

The target in one assay is CSNK1A1L (Homo sapiens, UniProt Q8N752). As to the kind of experiment: scanMAX binding assay, CSNK1A1L. The conditions noted are these: Percent of Control; legend and method: 1 μM; read-out: CSNK1A1L PoC @ 1 µM. An excerpt:
(§1) As described previously, this commercial assay platform screens against 403 WT human kinases in binding assays and provides PoC values ([73]).

Another assay has as its target T1, DYRK1A (Homo sapiens, UniProt Q13627).
T1 construct: purchased Eurofins DiscoverX Corporation
As to the kind of experiment: scanMAX binding assay, DYRK1A. Conditions: Percent of Control; legend and method: 1 μM; read-out: DYRK1A PoC @ 1mM.
Source text: as §1

A further assay addresses T2, GSK3β (NLuc-GSK3β) (Homo sapiens, UniProt P49841).
T2 construct: host or cells: HEK293T
In words: NanoBRET cellular target engagement assay, NLuc-GSK3β in HEK293T cells. Format: cell-based. Conditions: live HEK293T cells, 0.063 μM tracer K-8; read-out: GSK3β NanoBRET assay, inactive up to. How it is done:
(§2) HEK293T cells (hypotriploid, fetal) were purchased from ATCC. These cells were grown in Dulbecco’s modified Eagle’s medium (Gibco) supplemented with 10% (v/v) fetal bovine serum (Corning). They were incubated in 5% CO2 at 37 °C and passaged every 72 h with trypsin and not allowed to reach confluency. Constructs for NanoBRET measurements of CK1γ2 (NLuc-CK1γ2) and GSK3β (NLuc-GSK3β) were kindly provided by Promega. NanoBRET assays were carried out as described previously ([74]). Preferred NLuc orientations, both N-terminal in this case, are indicated in parentheses after each construct. Assays were carried out in dose–response as described by the manufacturer using 0.5 μM of tracer K-10 for CK1γ2 and 0.063 μM of tracer K-8 for GSK3β. Two biological replicates were executed with two technical replicates to produce the graphs with error bars shown in Figures 6E, 7E, 8, A and B. Tracer titration curves for these kinases that motivated our tracer selection and working concentration can be found on the Promega website.

The target of another assay is T3, CK1γ3 (Homo sapiens, UniProt Q9Y6M4).
T3 construct: purchased Eurofins
In words: Eurofins kinase enzymatic radiometric assay, CK1γ3. Format: biochemical. Conditions: Km = ATP, 9-pt curve in duplicate. An excerpt: Details related to the substrate used, protein constructs, controls, and assay protocol for each kinase assay are included on the Eurofins website: https://www.eurofinsdiscoveryservices.com/.

The target of another assay is T4, ADCK3 (Homo sapiens, UniProt Q8NI60).
T4 construct: purchased Eurofins DiscoverX Corporation (scanMAX)
As to the kind of experiment: scanMAX binding assay, ADCK3. Conditions: Percent of Control; legend and method: 1 μM; read-out: ADCK3 PoC @ 1 µM.
Source text: as §1

Another assay deals with T5, CK1γ2 (NLuc-CK1γ2) (Homo sapiens, UniProt P78368).
T5 construct: host or cells: HEK293T
As to the kind of experiment: NanoBRET cellular target engagement assay, NLuc-CK1γ2 in HEK293T cells. Format: cell-based. The conditions noted are these: live HEK293T cells, 0.5 μM tracer K-10; read-out: NL-CK1γ2 NanoBRET IC50. How it is done: as §2

The next assay has as its target T6, DYRK1B (Homo sapiens, UniProt Q9Y463).
T6 construct: purchased Eurofins DiscoverX Corporation
In words: scanMAX binding assay, DYRK1B. The conditions noted are these: Percent of Control; legend and method: 1 μM; read-out: DYRK1B PoC @ 1 µM.
Source text: as §1

For a further assay, the target named is T7, GSK3α (Homo sapiens, UniProt P49840).
T7 construct: purchased Eurofins DiscoverX Corporation
In words: scanMAX binding assay, GSK3α. Conditions: Percent of Control; legend and method: 1 μM.
Source text: as §1

T3 sequence (Q9Y6M4 whole entry): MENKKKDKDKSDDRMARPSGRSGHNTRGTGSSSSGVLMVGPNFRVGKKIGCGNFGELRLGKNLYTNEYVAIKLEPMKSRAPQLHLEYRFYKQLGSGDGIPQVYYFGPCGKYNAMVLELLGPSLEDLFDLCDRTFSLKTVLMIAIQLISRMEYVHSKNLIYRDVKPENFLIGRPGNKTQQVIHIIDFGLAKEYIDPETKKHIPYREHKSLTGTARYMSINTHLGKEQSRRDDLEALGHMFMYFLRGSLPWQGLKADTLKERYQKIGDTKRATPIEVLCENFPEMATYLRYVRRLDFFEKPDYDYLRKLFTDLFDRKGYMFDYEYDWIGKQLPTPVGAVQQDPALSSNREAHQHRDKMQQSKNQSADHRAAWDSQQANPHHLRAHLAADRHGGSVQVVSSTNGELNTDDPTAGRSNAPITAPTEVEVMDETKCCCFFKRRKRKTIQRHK
T6 sequence (Q9Y463 whole entry): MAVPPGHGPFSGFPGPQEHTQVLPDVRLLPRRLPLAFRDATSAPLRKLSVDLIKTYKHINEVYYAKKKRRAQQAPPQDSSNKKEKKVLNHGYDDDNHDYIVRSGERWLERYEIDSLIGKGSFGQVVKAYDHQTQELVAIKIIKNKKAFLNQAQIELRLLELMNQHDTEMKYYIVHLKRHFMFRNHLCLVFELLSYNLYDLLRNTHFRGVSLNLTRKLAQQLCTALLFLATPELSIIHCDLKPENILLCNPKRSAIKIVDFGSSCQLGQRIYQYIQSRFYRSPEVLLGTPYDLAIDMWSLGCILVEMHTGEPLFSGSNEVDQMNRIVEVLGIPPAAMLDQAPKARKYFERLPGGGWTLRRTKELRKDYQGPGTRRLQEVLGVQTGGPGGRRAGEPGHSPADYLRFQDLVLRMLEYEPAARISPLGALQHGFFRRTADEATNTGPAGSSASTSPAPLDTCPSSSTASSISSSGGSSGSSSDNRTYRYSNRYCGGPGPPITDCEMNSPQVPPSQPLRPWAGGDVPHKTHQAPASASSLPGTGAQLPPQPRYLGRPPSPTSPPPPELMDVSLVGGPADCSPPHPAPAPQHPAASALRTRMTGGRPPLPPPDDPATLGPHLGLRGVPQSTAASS
T7 sequence (P49840 whole entry): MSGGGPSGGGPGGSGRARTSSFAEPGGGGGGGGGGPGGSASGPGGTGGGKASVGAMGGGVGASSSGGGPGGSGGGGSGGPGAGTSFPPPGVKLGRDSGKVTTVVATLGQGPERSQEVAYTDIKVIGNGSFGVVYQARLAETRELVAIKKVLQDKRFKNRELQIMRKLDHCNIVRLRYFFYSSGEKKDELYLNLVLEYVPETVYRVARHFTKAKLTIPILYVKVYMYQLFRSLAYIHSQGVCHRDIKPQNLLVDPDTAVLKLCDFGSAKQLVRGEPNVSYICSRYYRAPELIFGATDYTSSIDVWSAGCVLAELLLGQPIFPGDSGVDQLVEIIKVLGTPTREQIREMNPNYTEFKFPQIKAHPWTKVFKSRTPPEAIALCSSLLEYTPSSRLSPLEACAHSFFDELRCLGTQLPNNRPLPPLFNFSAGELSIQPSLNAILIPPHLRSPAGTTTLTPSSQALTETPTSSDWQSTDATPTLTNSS
T5 sequence (P78368 whole entry): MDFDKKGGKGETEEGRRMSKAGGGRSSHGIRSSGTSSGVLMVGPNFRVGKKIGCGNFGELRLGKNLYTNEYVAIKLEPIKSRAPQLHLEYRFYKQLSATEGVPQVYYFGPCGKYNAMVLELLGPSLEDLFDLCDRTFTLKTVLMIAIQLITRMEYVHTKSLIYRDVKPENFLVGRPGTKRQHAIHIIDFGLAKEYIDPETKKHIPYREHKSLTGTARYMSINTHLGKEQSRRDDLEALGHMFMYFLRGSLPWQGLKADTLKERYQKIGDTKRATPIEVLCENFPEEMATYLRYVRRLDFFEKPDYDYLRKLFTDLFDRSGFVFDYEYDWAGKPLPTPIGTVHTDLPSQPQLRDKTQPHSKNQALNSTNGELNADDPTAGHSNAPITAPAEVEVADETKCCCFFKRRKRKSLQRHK
T2 sequence (P49841 whole entry): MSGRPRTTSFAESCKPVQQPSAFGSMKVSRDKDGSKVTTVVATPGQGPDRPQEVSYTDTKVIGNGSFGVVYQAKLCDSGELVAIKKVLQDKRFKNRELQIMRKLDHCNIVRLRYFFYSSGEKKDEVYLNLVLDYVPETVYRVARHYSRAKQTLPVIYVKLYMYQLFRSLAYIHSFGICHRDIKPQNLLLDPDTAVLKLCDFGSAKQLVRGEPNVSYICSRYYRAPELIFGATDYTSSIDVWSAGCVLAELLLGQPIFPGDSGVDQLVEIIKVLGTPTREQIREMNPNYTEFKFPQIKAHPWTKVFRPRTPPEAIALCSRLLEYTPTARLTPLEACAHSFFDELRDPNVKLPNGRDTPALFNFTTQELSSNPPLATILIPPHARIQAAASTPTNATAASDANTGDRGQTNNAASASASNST
T4 sequence (Q8NI60 163-647): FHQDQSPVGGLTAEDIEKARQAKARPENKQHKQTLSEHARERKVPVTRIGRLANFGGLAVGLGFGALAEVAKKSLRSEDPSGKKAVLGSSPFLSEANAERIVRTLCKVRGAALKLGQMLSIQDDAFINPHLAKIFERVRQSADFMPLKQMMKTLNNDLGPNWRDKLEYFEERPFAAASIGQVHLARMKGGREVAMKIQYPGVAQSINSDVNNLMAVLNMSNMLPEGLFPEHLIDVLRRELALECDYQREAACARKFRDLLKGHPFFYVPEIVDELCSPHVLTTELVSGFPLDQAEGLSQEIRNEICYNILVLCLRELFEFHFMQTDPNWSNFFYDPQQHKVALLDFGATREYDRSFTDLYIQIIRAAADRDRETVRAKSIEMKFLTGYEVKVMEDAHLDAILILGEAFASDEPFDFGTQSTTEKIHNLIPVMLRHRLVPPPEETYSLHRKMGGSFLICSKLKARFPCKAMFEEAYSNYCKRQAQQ
Chain of CSNK1A1L (Q8N752 whole entry): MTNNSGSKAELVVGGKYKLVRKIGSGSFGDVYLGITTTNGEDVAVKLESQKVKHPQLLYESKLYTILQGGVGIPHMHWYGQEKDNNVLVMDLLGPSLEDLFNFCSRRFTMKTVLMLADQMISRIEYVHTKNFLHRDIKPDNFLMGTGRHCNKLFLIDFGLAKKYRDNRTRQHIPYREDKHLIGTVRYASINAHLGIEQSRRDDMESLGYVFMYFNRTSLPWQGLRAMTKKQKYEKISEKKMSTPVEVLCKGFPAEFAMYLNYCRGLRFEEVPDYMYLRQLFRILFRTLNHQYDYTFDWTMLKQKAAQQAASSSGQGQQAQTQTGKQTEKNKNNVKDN

Turning to `COc1cnc(COc2ccc(F)c(F)c2)cc1-c1cc2c([nH]1)CCNC2=O` [FP1-24-2, 2-(2-((3,4-difluorophenoxy)methyl)-5-methoxypyridin-4-yl)-1,5,6,7-tetrahydro-4H-pyrrolo[3,2-c]pyridin-4-one], the remaining binding at 1 µM was found to be 5.9% at CSNK1A1L, 5.4% on ADCK3 and 7.1% on DYRK1B. Besides, at DYRK1A, the remaining binding at 1000 µM is 0.1%. For the same molecule, the IC50 at GSK3β (NLuc-GSK3β) was more than 10000 nM; against CK1γ3, < 15 nM and 14 nM; at CK1γ2 (NLuc-CK1γ2) it was 10.7 nM. Moreover, at GSK3α, the “GSK3α PoC @ 1 µM” value is “did not inhibit”.
